Experimental data reported in patent publication US20110009264A1, “HERBICIDAL COMBINATION” (Bayer CropScience AG, priority 2007, published 2011).

Experiments:
Polygonum convolvulus = assay: Post-emergence action against weeds, greenhouse, visual scoring of control; format: in vivo; conditions: 11 days after application
Description: (§1) Seeds or rhizome pieces of monocotyledonous and dicotyledonous weeds were placed in sandy loam soil in plastic pots, covered with soil and cultivated in a greenhouse under good growth conditions. Three weeks after sowing, the test plants were treated at the 2- to 4-leaf stage. The compounds according to the invention, formulated as wettable powders or as emulsion concentrates, were sprayed onto the green parts of the plants in various dosages at a water application rate of 100 to 800 l/ha (converted).
(§2) 0%=no control 100%=complete control

Veronica persica = assay: as above; format: in vivo; conditions: 11 days after application
Description: as §1, with “(converted). After the test plants had been left to stand in the greenhouse for 10 to 28 days under optimum growth conditions, the effect of the preparations was scored visually in comparison to untreated controls.” for “(converted).”
as §2

COc1c(Cl)ccc(Cl)c1C(=O)O [Compound B1-1, dicamba]
Polygonum convolvulus Control in % (Polygonum convolvulus; 100 g of ai/ha): 40%

O=C(O)c1nc(Cl)ccc1Cl [Compound B2-1, clopyralid]
Veronica persica Control in % (Veronica persica; 50 g of ai/ha): 0%

Nc1c(Cl)c(F)nc(OCC(=O)O)c1Cl [Compound B2-2, fluoroxypyr]
Veronica persica Control in % (Veronica persica; 80 g of ai/ha): 60%

Nc1c(Cl)c(Cl)nc(C(=O)O)c1Cl [Compound B2-4, picloram]
Polygonum convolvulus Control in % (Polygonum convolvulus; 80 g of ai/ha): 20%

Nc1nc(C2CC2)nc(C(=O)[O-])c1Cl.[K+] [Compound B6-1, aminocyclopyrachlor]
Polygonum convolvulus Control in % (Polygonum convolvulus; 25 g of ai/ha): 60%

sodium salt of 2-iodo-N-[(4-methoxy-6-methyl-1,3,5-triazin-2-yl)carbamoyl]benzenesulfonamide [Compound A-2]
Veronica persica Control in % (Veronica persica; 2.5 g of ai/ha, 0%=no control, 100%=complete control): 0%
